Reference: patent publication US20160052926A1, “NOVEL PYRIMIDINE AND PYRIDINE COMPOUNDS AND USAGE THEREOF” (HUTCHISON MEDIPHARMA LIMITED, priority 2013, published 2016)
pIC50: −log10 of the molar value.

How the values were obtained:
Type in all cases: biochemical
Recombinant human FGFR1 = Recombinant human FGFR1 (Homo sapiens, UniProt P11362); test: Transcreener Kinase Assay of FGFR1; details: read-out: FGFR1 (FP) IC50
Experimental: Transcreener Kinase Assay of FGFR1
(§1) Prepare Solution • Compounds were solved in DMSO and were diluted with assay buffer to 5 folds of final concentration keeping the DMSO concentration at 5%. Further dilution are needed to make final concentrations are at 1, 0.33, 0.11, 0.037, 0.012, 0.004, 0.0014, 0.0005 μM; (the final concentration of DMSO is 1%). • Enzyme/Substrate stock Preparation: Recombinant human FGFR1 and Poly E4Y are both diluted in assay buffer.
(§2) Enzymatic Reaction • In a 96-well plate, Add 5 μL of compound or control. (positive control: 5 μL of 5% DMSO; negative control: 5 μL of 500 mM EDTA) into desired wells; • Add 10 μL of Enzyme/Substrate stock into each well; • Add 10 μL of ATP Diluents to initiate the enzyme reaction and votex the plate immediately on a plate shaker; • For the wells to make standard curve, add 5 μL of 5% DMSO, 10 μL of assay buffer and 10 μL of ATP standard curve stock. • Incubate the plate for 45 min at 28[…] on a plate shaker in a low speed.
Excitation wavelength: 610 nm, Emission wavelength: 670 nm.
(§3) • [ADP] in Compound well represents the ADP concentration in compound well. • [ADP] in Positive control well represents the ADP concentration in 5% DMSO well • Conversion of mP value to ADP concentration is calculated based on the formula which determined by standard curve. And mP value is measured by following the instruction provided by BellBrook Labs. (www.bellbrooklabs.com). 6. IC50: calculated using XL-Fit 2.0 software.

Recombinant human FGFR2 = Recombinant human FGFR2 (Homo sapiens, UniProt P21802); test: Transcreener Kinase Assay of FGFR2; details: read-out: FGFR2 (FP) IC50
Experimental: Transcreener Kinase Assay of FGFR2
as §1, with “•” for “Prepare Solution •”, “FGFR2” for “FGFR1”, “buffer. The final concentration is 0.3 ng/μL for FGFR2 and 62.5 ng/μL for Poly E4Y. The mixture is being kept in ice before use; • Prepare ATP Diluents, 10 mM ATP is diluted in assay buffer, the final concentration is 25 μM; • Prepare ADP Diluents: diluted ADP (500 μM) in assay buffer, the final concentration is 25 μM; • Prepare ATP standard curve stock as following:” for “buffer.”
as §2, with “•” for “Enzymatic Reaction •”
• Detection Mix Preparation: The mixture is made by dilution with MilliQ water; as following: ADP Alexa633 tracer (1:100), ADP antibody (1:158), and stop & detect buffer (1:10); • Tracer Only control Preparation: The mixture is made by dilution with MilliQ water; as following: ADP Alexa633 tracer (1:100), and stop & detect buffer (1:10) • No Tracer control Preparation: stop & detect buffer is diluted with MilliQ water; by 10 fold. • Add 25 μL of detection mix, Tracer Only control and No Tracer control into corresponding wells, respectively; • Incubate at 28 °C for 1 h, on a plate shaker in a low speed; • Measure florescence polarization (FP) on TECAN F500. Excitation wavelength: 610 nm, Emission wavelength: 670 nm.
as §3

FGFR3 kinase = FGFR3 kinase (Homo sapiens, UniProt P22607); test: Z-Lyte Kinase Assay of FGFR3
Experimental: Z-Lyte Kinase Assay of FGFR3
The final concentrations are 1, 0.33, 0.11, 0.037, 0.012, 0.004, 0.0014, 0.00046 μM, and the final concentration of DMSO is 2%. • 3) Kinase/Peptide Mixture (P/K solution): Prepare Kinase/Peptide Mixture by diluting the kinase to 0.7 μg/ml and the Z-LYTE™ Tyr 4 peptide to 4 μM in 1.33× Kinase Buffer. Mix gently by pipetting. • 4) Phospho-peptide Solution (PP solution): Add 0.4 μl of Z-LYTE™ Tyr 4 Phospho-peptide to 99.6 μl of 1.33× Kinase Buffer. • 5) ATP Solution: Prepare ATP Solution by diluting the 10 mM of ATP in 1.33× Kinase Buffer to 300 uM. • 6) Development Solution: Dilute Development Reagent B with Development Buffer as 1:128.
Shake the plate for 30 Sec and centrifuge (1500 rpm, 1 min) • Seal the plate to protect from the light and incubate the plate for 1 hour at RT (25-30[…]) • 2) Development reaction • Add 5 μl of the Development solution to all wells • Shake the plate for 30 Sec and centrifuge (1500 rpm, 1 min) • Seal the plate to protect from the light and incubate the plate for 1 hour at RT (25-30[…]) • 3) Stop and read • Add 5 μl of the Stop reagent to all wells • Shake the plate for 30 Sec and centrifuge (1500 rpm, 1 min) • Measure the value of Coumarin (Ex400 nm, Em445 nm) and fluorescein (Ex400 nm, Em520 nm), respectively.
Inhibition rate(IR)=1−%Photest Cpd/%PhoC2
• determined with add-in software for Microsoft Excel, XLfit™ (version 2.0) from ID Business Solutions (Guildford, UK)

Sequence of FGFR3 kinase (P22607 23-806): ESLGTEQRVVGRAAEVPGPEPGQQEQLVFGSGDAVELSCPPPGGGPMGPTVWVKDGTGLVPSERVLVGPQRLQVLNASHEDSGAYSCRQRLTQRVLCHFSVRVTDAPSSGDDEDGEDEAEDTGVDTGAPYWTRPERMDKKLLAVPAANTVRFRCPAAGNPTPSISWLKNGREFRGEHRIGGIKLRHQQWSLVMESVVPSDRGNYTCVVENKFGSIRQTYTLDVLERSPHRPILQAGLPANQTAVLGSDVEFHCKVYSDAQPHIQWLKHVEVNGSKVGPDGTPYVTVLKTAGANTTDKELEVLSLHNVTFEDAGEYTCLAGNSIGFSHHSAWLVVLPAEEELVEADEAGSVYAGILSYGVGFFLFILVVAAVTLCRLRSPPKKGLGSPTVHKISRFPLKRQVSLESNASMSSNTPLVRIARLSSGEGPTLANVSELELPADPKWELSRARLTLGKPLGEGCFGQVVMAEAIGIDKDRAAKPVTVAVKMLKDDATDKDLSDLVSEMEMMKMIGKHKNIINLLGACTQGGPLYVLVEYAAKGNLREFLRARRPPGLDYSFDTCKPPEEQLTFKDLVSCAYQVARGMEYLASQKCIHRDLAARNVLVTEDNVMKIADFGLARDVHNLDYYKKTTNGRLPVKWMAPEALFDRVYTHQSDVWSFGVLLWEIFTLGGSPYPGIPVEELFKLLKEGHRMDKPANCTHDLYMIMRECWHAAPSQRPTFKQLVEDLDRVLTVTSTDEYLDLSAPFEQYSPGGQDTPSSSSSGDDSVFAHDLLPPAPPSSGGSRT
Sequence of Recombinant human FGFR2 (P21802 22-821): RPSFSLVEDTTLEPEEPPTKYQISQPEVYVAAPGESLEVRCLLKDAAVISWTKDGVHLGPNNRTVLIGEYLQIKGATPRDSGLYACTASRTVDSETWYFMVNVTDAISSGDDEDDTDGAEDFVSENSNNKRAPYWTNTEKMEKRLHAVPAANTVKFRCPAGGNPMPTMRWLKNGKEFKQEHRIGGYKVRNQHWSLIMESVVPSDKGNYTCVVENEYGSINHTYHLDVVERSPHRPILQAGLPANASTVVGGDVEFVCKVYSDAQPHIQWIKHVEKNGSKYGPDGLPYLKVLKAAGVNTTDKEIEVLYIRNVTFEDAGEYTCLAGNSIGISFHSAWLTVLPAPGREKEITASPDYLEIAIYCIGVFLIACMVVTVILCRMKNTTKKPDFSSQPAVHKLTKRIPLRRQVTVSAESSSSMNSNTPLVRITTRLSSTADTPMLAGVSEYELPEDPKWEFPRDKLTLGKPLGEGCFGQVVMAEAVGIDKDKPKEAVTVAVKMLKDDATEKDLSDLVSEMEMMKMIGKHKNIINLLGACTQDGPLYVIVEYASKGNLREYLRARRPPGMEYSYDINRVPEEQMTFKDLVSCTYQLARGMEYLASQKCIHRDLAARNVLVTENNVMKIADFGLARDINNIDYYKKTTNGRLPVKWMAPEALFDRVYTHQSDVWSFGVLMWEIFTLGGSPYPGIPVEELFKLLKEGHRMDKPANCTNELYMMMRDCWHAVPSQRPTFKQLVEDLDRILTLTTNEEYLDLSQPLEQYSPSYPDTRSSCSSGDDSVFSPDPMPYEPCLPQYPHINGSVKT
Sequence of Recombinant human FGFR1 (P11362 22-822): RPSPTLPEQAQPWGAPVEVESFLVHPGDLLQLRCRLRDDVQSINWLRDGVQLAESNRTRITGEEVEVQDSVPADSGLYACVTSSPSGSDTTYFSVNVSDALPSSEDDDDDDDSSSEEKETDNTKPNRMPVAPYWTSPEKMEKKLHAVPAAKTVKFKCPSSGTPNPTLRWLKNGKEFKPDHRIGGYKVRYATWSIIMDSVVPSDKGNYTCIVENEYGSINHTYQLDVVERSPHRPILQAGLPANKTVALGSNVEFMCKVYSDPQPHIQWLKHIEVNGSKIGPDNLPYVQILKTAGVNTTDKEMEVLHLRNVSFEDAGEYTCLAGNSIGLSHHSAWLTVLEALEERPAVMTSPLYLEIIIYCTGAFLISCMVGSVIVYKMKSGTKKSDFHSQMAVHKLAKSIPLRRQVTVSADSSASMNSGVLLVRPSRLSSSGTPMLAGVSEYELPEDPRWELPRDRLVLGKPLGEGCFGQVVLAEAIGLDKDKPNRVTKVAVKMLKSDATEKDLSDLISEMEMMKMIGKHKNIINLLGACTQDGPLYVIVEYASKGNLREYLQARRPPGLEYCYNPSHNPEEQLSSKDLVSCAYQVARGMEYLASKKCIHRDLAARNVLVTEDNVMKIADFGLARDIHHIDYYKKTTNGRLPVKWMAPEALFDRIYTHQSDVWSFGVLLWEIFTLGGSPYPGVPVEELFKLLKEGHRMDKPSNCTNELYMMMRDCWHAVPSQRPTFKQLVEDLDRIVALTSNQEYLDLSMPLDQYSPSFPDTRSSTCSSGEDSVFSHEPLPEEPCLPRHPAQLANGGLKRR

Row | SMILES | pIC50 (Recombinant human FGFR1) | pIC50 (Recombinant human FGFR2) | pIC50 (FGFR3 kinase)
1 | CCN1CCN(c2ccc(Nc3ncc(CCc4cc(C(=O)NC5CC5)cc5occc45)cn3)cc2)CC1 [Compound 7] | 6.84 | 6.77 | 6.23
2 | CNC(=O)c1cc(CCc2cnc(Nc3ccn4cnnc4c3)nc2)c(F)c(OC)c1 [Compound 68] | 7.51 | 7.89 | 7.60
3 | CNC(=O)c1cc(CCc2cnc(Nc3cnn(C4CCNCC4)c3)nc2)c(F)c(OC)c1 [Compound 164] | 8.10 | 8.10 | 8.10
4 | CNC(=O)c1cc(CCc2cnc(Nc3ccn4c(C)nnc4c3)nc2)c(F)c(OC)c1 [Compound 70] | 7.57 | 7.80 | 7.66
5 | CNC(=O)c1cc(CCc2cnc(Nc3cnn([C@H]4CCNC4)c3)nc2)c(F)c(OC)c1 [Compound 162] | 7.77 | 8.00 | 7.85
6 | CCn1cnc(Nc2ncc(CCc3cc(C(=O)NC)cc(OC)c3F)cn2)c1 [Compound 28] | 6.44 | 6.61 | 6.46
7 | CNC(=O)c1cc(CCc2cnc(Nc3cnn(C4CNC4)c3)nc2)c(F)c(OC)c1 [Compound 160] | 7.82 | 8.00 | 7.80
8 | CNC(=O)c1cc(CCc2cnc(Nc3cc[n+]([O-])c(C)c3)nc2)c(F)c(OC)c1 [Compound 78, 4-((5-(2-fluoro-3-methoxy-5-(methylcarbamoyl)phenethyl)pyrimidin-2-yl)amino)-2-methylpyridine 1-oxide] | 7.36 | 7.74 | 7.51
9 | CCOc1cc(CCc2cnc(Nc3ccc(N4CCN(CC)CC4)cc3)nc2)cc(C(=O)NOC)c1 [Compound 51] | 6.99 | 6.95 | 6.76
10 | CNC(=O)c1cc(CCc2cnc(Nc3cnn([C@@H]4CCNC4)c3)nc2)c(F)c(OC)c1 [Compound 161] | 7.77 | 8.05 | 7.92
11 | CNC(=O)c1cc(CCc2cnc(Nc3ccn4c(COC)nnc4c3)nc2)c(F)c(OC)c1 [Compound 73] | 7.47 | 7.96 | 7.40
12 | CNC(=O)c1cc(CCc2cnc(Nc3cccc(N4C[C@@H](C)N[C@@H](C)C4)c3)nc2)cc(OC)c1 [Compound 12] | 7.01 | 7.60 | 6.89
13 | CNC(=O)c1cc(CCc2cnc(Nc3c(C)nn(C)c3C)nc2)c(F)c(OC)c1 [Compound 109] | 6.42 | 6.56 | 6.51
14 | CNC(=O)c1cc(CCc2cnc(Nc3cnn(C4CCNCC4)c3)nc2)c(Cl)c(OC)c1 [Compound 158, 4-chloro-3-methoxy-N-methyl-5-(2-(2-(1-(piperidin-4-yl)-1H-pyrazol-4-ylamino)pyrimidin-5-yl)ethyl)benzamide] | 8.10 | 8.10 | 8.22
15 | CCN1CCN(c2ccc(Nc3ncc(CCc4cc(C(=O)NOC)cc5c4CCO5)cn3)cc2)CC1 [Compound 6] | 6.04 | 6.01 | 
16 | CNC(=O)c1cc(CCc2cnc(Nc3cnn(CC(=O)N4CCN(C)CC4)c3)nc2)c(F)c(OC)c1 [Compound 144] | 7.89 | 8.22 | 7.80
17 | CCN1CCN(c2ccc(Nc3ncc(CCc4cc(C(=O)NC)cc5occc45)cn3)cc2)CC1 [Compound 4] | 6.70 | 6.63 | 6.10
18 | CCN1CCN(c2ccc(Nc3ncc(CCc4cc(OC)cc(C(=O)NOC(C)C)c4)cn3)cc2)CC1 [Compound 58] | 6.49 | 6.91 | 6.29

Second part, the compound after the results:

Row | pIC50 (Recombinant human FGFR1) | pIC50 (Recombinant human FGFR2) | pIC50 (FGFR3 kinase) | SMILES
19 | 7.82 | 8.22 | 8.15 | CNC(=O)c1cc(COc2cnc(Nc3cnn(C4C[C@@H](C)N[C@@H](C)C4)c3)nc2)c(F)c(OC)c1 (some centres unmarked) [Compound 202]
20 | 8.00 | 7.96 | 7.77 | CNC(=O)c1cc(CCc2cnc(Nc3ccc(N4C[C@@H](C)N[C@@H](C)C4)nc3)nc2)c(Cl)c(OC)c1 [Compound 214]
21 | 7.42 | 7.89 | 7.68 | CNC(=O)c1cc(CCc2cnc(Nc3ccc(CC(=O)O)cc3)nc2)c(F)c(OC)c1 [Compound 206]
22 | 8.00 | 8.40 | 8.00 | CNC(=O)c1cc(COc2cnc(Nc3ccc(N4C[C@@H](C)N[C@@H](C)C4)c(F)c3)nc2)c(Cl)c(OC)c1 [Compound 220]
23 | 7.35 | 7.80 | 7.54 | CNC(=O)c1cc(COc2cnc(Nc3ccc(CC(=O)O)cc3)nc2)c(F)c(OC)c1 [Compound 207]
24 | 7.66 | 8.10 | 7.57 | CNC(=O)c1cc(C#Cc2cnc(Nc3ccc(N4C[C@@H](C)N[C@@H](C)C4)cc3)nc2)c(Cl)c(OC)c1 [Compound 222, 4-chloro-3-((2-((4-((3S,5R)-3,5-dimethylpiperazin-1-yl)phenyl)amino)pyrimidin-5-yl)ethynyl)-5-methoxy-N-methylbenzamide]
25 | 6.57 | 6.88 | 6.64 | CCn1cc(Nc2ccc(OCc3cc(C(=O)NC)cc(OC)c3F)cn2)cn1 [Compound 187]
26 | 6.92 | 7.57 | 6.16 | C#Cc1ccc(Nc2ncc(OCc3cc(C(=O)NC)cc(OC)c3F)cn2)cc1 [Compound 210]
27 | 7.00 | 7.06 | 6.88 | CCN1CC[C@@H](n2cc(Nc3ncc(CCc4cc(C(=O)NC)cc(OC)c4F)cn3)cn2)C1 [Compound 170]
